In ChEMBL document CHEMBL1145461 (J Med Chem, 2007):

How the values were obtained:
[1] = biological target: T1, Steroid 17-alpha-hydroxylase/17,20 lyase (Homo sapiens, UniProt P05093); test: (§1) Inhibition of human CYP17 expressed in Escherichia coli at 2.5 uM; conditions: 2.5 µM
T1 sequence (P05093 whole entry): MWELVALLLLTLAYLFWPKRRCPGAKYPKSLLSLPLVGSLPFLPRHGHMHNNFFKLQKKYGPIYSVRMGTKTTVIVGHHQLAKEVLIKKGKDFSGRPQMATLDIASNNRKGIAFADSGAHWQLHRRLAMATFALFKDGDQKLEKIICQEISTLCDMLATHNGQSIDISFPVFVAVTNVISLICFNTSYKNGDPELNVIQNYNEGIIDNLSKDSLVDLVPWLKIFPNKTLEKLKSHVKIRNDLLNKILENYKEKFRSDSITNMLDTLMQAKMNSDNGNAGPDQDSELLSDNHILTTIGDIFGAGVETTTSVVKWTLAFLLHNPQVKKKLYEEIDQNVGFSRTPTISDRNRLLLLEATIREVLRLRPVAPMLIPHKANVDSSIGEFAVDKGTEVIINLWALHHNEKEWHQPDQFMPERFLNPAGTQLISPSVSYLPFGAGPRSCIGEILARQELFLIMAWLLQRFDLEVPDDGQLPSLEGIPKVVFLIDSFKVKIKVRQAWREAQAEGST

[2] = biological target: T2, CYP17 (steroid 17-alpha-hydroxylase/17,20 lyase) (Homo sapiens, UniProt P05093); test: as §1; conditions: recombinant human CYP17 expressed in Escherichia coli
T2 sequence (P05093 whole entry): T1 sequence (P05093 whole entry)

[3] = biological target: T3, Aromatase (Homo sapiens, UniProt P11511); test: Inhibition of CYP19 in human placental microsomes; set-up: species or system Placenta
T3 sequence (P11511 whole entry): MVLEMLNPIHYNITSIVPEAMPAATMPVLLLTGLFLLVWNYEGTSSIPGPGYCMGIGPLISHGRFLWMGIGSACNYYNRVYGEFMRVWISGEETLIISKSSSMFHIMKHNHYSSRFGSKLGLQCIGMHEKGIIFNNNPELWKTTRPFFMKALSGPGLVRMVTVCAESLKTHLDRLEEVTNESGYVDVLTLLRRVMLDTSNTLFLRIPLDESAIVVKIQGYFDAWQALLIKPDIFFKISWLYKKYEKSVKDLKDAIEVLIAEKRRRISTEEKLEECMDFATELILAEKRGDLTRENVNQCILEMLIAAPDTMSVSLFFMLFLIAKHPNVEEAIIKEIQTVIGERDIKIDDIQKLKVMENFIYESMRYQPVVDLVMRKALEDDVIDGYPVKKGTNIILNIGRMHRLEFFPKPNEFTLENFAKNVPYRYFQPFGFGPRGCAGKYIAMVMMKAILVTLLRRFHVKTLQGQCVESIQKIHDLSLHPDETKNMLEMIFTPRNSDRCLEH

`O=C(c1ccccc1)c1ccc(Cn2ccnc2)cc1` was tested. Which Inhibition [1] did it give?
The Inhibition was “Not Active”.

Which inhibition at 2.5 µM [2] does the source give for `O=C(c1ccccc1)c1cc(Br)ccc1Cn1ccnc1` here?
Its inhibition at 2.5 µM is 15%.

What about the IC50 [3] of the same compound?
The IC50 was 400 nM.

Which results are given for `O=C(c1ccccc1)c1cc([N+](=O)[O-])ccc1Cn1ccnc1`?
Inhibition [1]: Not Active; IC50 [3]: 25.9 nM

Which inhibition at 2.5 µM [2] does the source give for `O=C(c1ccc(-c2ccccc2)cc1)c1cc([N+](=O)[O-])ccc1Cn1ccnc1` here?
Its inhibition at 2.5 µM is 17%.

And the IC50 [3]?
The IC50 was 17.7 nM.

Which inhibition at 2.5 µM [2] does the source give for `O=C(c1ccc(-c2ccccc2)cc1)c1ccccc1Cn1ccnc1` here?
Its inhibition at 2.5 µM is 24%.

What about the IC50 [3] of the same compound?
The IC50 was 260 nM.

For `O=C(c1ccc(-c2ccccc2)cc1)c1cccc(Cn2ccnc2)c1`, which Inhibition [1] is on record?
The Inhibition was “Not Active”.

And the IC50 [3]?
The IC50 was 5.3 nM.

Which results are given for `O=C(c1ccccc1)c1ccccc1Cn1ccnc1`?
Inhibition [1]: Not Active; IC50 [3]: 560 nM

`O=C(c1ccccc1)c1cc(Cn2ccnc2)ccc1[N+](=O)[O-]` was tested. Which Inhibition [1] did it give?
The Inhibition was “Not Active”.

What about the IC50 [3] of the same compound?
Its IC50 is 31 nM.

Which Inhibition [1] does the source give for `O=C(c1ccccc1)c1cccc(Cn2ccnc2)c1` here?
The Inhibition was “Not Active”.

And the IC50 [3]?
The IC50 was 7.3 nM.

Which Inhibition [1] does the source give for `N#Cc1ccc(C2CCCc3cncn32)cc1` (stereo not drawn) [FADROZOLE] here?
The Inhibition was “Not Active”.
